Measurements: ChEMBL document CHEMBL3132754 (Medchemcomm, 2013)
pIC50: −log10 of the molar value.

What was measured:
[1] = (§1) Stability in human plasma assessed as compound remaining at 5 uM after 1 hr by LC/MS/MS method; assay type: ADME, cell-free; conditions: read-out: Stability
[2] = Metabolic stability in human liver microsomes assessed as compound remaining at 200 uM measured after 1 hr by LC/MS/MS method; assay type: ADME; conditions: read-out: Stability
Plasma = assay: as §1; assay type: ADME, cell-free; conditions: 1 h, 5 µM
MV4-11 = assay: […] histone methylation in human MV4-11 cells assessed as H3K79 methylation after 4 days by Western blot analysis; assay type: functional, cell-based; conditions: MV4-11, 96 h

| SMILES | remaining at 1 h, 5 µM [1] | remaining at 1 h, 200 µM [2] | Stability (Plasma) | pIC50 (MV4-11) |
| --- | --- | --- | --- | --- |
| CC(C)N(CCCNC(=O)Nc1ccc(C(C)(C)C)cc1)C[C@H]1O[C@@H](n2cnc3c(N)ncnc32)[C@H](O)[C@@H]1O | 90% | 50% |  |  |
| CC(C)N(CCCNC(=O)Nc1ccc(C(C)(C)C)cc1)CC1=C[C@@H](n2cnc3c(N)ncnc32)[C@H](O)[C@@H]1O |  | 50% | Stable | 6.70 |
| CC(C)N(CCCNC(=O)Nc1ccc(C(C)(C)C)cc1)C[C@H]1C[C@@H](n2cnc3c(N)ncnc32)[C@H](O)[C@@H]1O |  |  | Stable |  |
